Key:
[1] = system: IFNα activation of STAT1 in PBMC; assay: IFNα activation of STAT1 in PBMC; type: cell-based; conditions: Homo sapiens; IFNα activation of STAT1 in PBMC; average IC50; read-out: IFNα signaling inhibitory potency IC50
Summary of the method: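 Human PBMC, with red cells lysed by NH4Cl, were pre-treated with compound for 30 min at 37 °C and 5% CO2. They were then stimulated for 30 min with recombinant human IFNα at 5 ng/mL final.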

[2] = system: IL-12 activation of STAT4 in NK-92 cells; assay: IL-12 activation of STAT4 in NK-92 cells using MSD as readout; type: cell-based; conditions: Homo sapiens, NK92; NK-92 cells, rhIL-12 25 ng/mL, MSD readout; read-out: IL12 pSTAT4 IC50
Description: IL-2 is added freshly to the medium with each medium refreshment step. Cells are cultured in a humidified incubator at 37° C. 5% CO2.
NK-92 cells are pre-incubated with test compounds or vehicle for 30 min at 37° C. 5% CO2. […] NK-92 cells are triggered with rhIL-12 for 45 min at 37° C. 5% CO2.
After 45 min of cytokine stimulation the cells are lysed by addition of 50 μL ice-cold lysis buffer (supplemented with the MSD kit). Plates are frozen at −80° C. for minimal 1 hour to lyse the cells completely. After thawing the levels of phospho-STAT4 are quantified using the Phospho-STAT4 (Tyr693) kit (MSD, Catalogue number K150PAD-2) according to the manufacturer's instructions. Electroluminescent signal is measured on the MSD reader.
The percentage inhibition is calculated as: […]
RLU (trigger/veh): Relative lumescent signal determined in presence of vehicle and trigger
RLU (test compound): Relative luminescent signal determined in presence of test compounds)
PIN values are plotted for compounds tested in dose-response and IC50 values are derived using LIMS Software applying non-linear regression (sigmoidal) curve fitting. The data are expressed as the average IC50 from different experiments.

[3] = molecular target: T1, Recombinant human TYK2 catalytic domain (amino acids 871-1187) (Homo sapiens, UniProt P29597); assay: TYK2 radioactive assay polyGT substrate; type: biochemical; also: 0.1 µM ATP
T1 construct: catalytic domain (amino acids 871-1187)
T1 sequence (P29597 871-1187): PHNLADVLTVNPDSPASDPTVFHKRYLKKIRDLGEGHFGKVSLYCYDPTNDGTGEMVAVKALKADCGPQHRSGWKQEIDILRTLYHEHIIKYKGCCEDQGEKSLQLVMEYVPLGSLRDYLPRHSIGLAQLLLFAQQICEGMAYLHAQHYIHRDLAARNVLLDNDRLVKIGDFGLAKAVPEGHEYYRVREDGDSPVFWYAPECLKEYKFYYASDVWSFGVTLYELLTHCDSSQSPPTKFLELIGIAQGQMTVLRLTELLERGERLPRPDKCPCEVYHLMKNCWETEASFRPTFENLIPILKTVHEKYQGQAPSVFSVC
Summary of the method: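 Reaction at 30° C. for 120 min, ended with 150 mM phosphoric acid, washed, counted; percent inhibition scaled between vehicle and 10 μM staurosporine cpm.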

[4] = system: IL-12 activation of STAT4 in NK-92 cells; assay: IL-12 activation of STAT4 in NK-92 cells using AphaLISA SureFire technology; type: cell-based; conditions: Homo sapiens, NK92; IL-12 activation of STAT4 in NK-92 cells, AlphaLISA SureFire; average IC50; read-out: IL12 pSTAT4 IC50
Summary of the method: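 NK-92 cells, starved of rhIL-2 overnight, were stimulated with rhIL-12 for 30 min at 37 °C with test compounds, then lysed. Phospho-STAT4 (Tyr693) was read by AlphaLISA SureFire. Percent inhibition versus the vehicle-plus-trigger signal was fitted by sigmoidal nonlinear regression to give IC50, averaged over experiments.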

Row | IC50 [2] | IC50 [3] | IC50 [4] | Structure (SMILES) | IC50 [1]
1 | 282 nM | 1 nM |  | Cn1cnc2c(Nc3ccc(S(C)(=O)=O)cn3)cc(NC(C3CC3)C(F)(F)F)nc21 (stereo not drawn) [Compound 92, N5-(1-cyclopropyl-2,2,2-trifluoro-ethyl)-3-methyl-N7-(5-methylsulfonyl-2-pyridyl)imidazo[4,5-b]pyridine-5,7-diamine] | 67 nM
2 | 90.1 nM | 0.52 nM | 22 nM | Cc1cc(C#N)ncc1N(c1cc(Nc2cc(N)ncn2)c2ncn(C)c2n1)C1CC1 [Compound 88, 5-[[7-[(6-aminopyrimidin-4-yl)amino]-3-methyl-imidazo[4,5-b]pyridin-5-yl]-cyclopropyl-amino]-4-methyl-pyridine-2-carbonitrile] | 14 nM
3 | 201 nM | 4.99 nM | 25.4 nM | CC(C)C(Nc1cc(Nc2cc(N)ncn2)c2ncn(C)c2n1)C(F)(F)F (stereo not drawn) [Compound 93, N7-(6-aminopyrimidin-4-yl)-3-methyl-N5-[2-methyl-1-(trifluoromethyl)propyl)imidazo[4,5-b]pyridine-5,7-diamine] | 65 nM

The remaining lines, values behind:

Row | Structure (SMILES) | IC50 [2] | IC50 [3] | IC50 [4] | IC50 [1]
4 | Cc1cc(C#N)ncc1Nc1cc(Nc2ccc(C(=O)N(C)C)cn2)c2ncn(C)c2n1 [Compound 67, 6-[[5-[(6-cyano-4-methyl-3-pyridyl)amino]-3-methyl-imidazo[4,5-b]pyridin-7-yl]amino]-N,N-dimethyl-pyridine-3-carboxamide] | 233 nM | 3.38 nM | 54.1 nM | 51 nM
5 | Cc1cc(C#N)ncc1Oc1cc(Nc2ccc(S(=O)(=O)C(F)F)cc2)c2ncn(C)c2n1 [Compound 68, 5-[7-[4-(difluoromethylsulfonyl)anilino]-3-methyl-imidazo[4,5-b]pyridin-5-yl]oxy-4-methyl-pyridine-2-carbonitrile] | 1440 nM | 15.7 nM | 122 nM | 128 nM
6 | Cc1cc(C(F)(F)F)ncc1Oc1cc(Nc2cc(N)ncn2)c2ncn(C)c2n1 [Compound 1, N-[3-Methyl-5-(4-methyl-6-trifluoromethyl-pyridin-3-yloxy)-3H-imidazo[4,5-b]pyridin-7-yl]-pyrimidine-4,6-diamine] | 539 nM | 10.1 nM | 111 nM | 85.5 nM
7 | Cc1cc(C#N)ncc1Oc1cc(Nc2ccc(S(=O)(=O)C3CC3)cc2)c2ncn(C)c2n1 [Compound 69, 5-[7-(4-cyclopropylsulfonylanilino)-3-methyl-imidazo[4,5-b]pyridin-5-yl]oxy-4-methyl-pyridine-2-carbonitrile] | 204 nM | 6.07 nM | 42.8 nM | 90 nM

Source: US11564923B2, “Compounds and pharmaceutical compositions thereof for the treatment of inflammatory disorders” (Galapagos NV, priority 2017, dated 2023)
